Measured values taken from paper PMC6367708 (Journal of medicinal chemistry, 2018).

How the values were obtained:
[1] = target: T1, CYP21A2 (Homo sapiens, UniProt P08686); test: Inhibition of CYP21A2-mediated progesterone 21-hydroxylation; type: biochemical
T1 sequence (P08686 with tags, fused parts or gaps): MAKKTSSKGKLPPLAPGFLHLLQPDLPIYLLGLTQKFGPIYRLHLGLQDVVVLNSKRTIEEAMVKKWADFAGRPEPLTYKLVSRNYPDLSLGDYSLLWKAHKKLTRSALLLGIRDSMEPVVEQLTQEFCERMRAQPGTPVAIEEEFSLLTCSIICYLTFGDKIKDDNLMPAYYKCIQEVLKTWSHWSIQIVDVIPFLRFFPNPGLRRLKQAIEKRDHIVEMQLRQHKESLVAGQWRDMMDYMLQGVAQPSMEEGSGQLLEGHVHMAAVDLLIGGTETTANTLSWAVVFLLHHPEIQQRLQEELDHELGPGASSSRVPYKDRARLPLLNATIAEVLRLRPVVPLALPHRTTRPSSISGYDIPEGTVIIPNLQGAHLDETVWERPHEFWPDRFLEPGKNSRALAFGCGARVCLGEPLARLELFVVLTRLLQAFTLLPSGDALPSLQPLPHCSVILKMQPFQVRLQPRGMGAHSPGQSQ

[2] = target: T2, CYP17A1 (Homo sapiens, UniProt P05093); test: Inhibition of CYP17A1-mediated progesterone 17α-hydroxylation; type: biochemical; settings: for increase in IC50 for CYP17A1: relative to abiraterone
T2 sequence (P05093 with tags, fused parts or gaps limits assumed): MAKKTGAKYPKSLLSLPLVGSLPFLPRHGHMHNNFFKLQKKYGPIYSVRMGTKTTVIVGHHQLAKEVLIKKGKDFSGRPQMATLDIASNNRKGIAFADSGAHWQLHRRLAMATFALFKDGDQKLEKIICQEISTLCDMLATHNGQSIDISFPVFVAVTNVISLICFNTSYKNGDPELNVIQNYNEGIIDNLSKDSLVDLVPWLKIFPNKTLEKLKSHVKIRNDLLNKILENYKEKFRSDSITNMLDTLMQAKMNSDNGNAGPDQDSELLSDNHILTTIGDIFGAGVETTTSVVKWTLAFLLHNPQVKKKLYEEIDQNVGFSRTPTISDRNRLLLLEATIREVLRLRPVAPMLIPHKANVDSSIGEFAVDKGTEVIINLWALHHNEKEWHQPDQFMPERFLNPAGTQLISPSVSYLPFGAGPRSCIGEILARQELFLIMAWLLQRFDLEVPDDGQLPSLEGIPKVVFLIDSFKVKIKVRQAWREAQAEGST

[3] = test system: CYP21A2; test: Inhibition of CYP21A2-mediated progesterone 21-hydroxylation; type: biochemical, human
[4] = target: T2, CYP17A1; settings: reported; cited from earlier work

**Q.** With `C[C@]12CC[C@H](O)CC1=C(C(N)=O)C[C@@H]1[C@@H]2CC[C@]2(C)C(c3cccnc3)=CC[C@@H]12` [compound 8, 3β-Hydroxy-17-(3-pyridyl)androsta-5,16-dien-6-carboxamide] as the compound, how does the “increase in IC50 for CYP21A2” value ([1]; relative to abiraterone) read?
**A.** 20 fold

**Q.** And the “increase in IC50 for CYP17A1” value [2]?
**A.** 4.6 fold

**Q.** With `C[C@]12CC[C@H]3[C@@H](C[C@@H]4O[C@@]45C[C@@H](O)CC[C@]35C)[C@@H]1CC=C2c1cccnc1` [6b, 5α,6α-Epoxy-17-(3-pyridyl)androst-16-en-3β-ol] as the compound, how does the IC50 [1] read?
**A.** 42.1 ± 8.5 nM

**Q.** What about the IC50 [2] of the same compound?
**A.** 7.83 ± 0.92 nM

**Q.** With `C[C@]12CC[C@H](O)C[C@@H]1C(=NO)C[C@@H]1[C@@H]2CC[C@]2(C)C(c3cccnc3)=CC[C@@H]12` [13b, 3β-Hydroxy-17-(3-pyridyl)-5α-androst-16-en-6-one oxime] as the compound, how does the IC50 [1] read?
**A.** 1390 ± 120 nM

**Q.** What about the “increase in IC50 for CYP21A2” value ([1]; relative to abiraterone) of the same compound?
**A.** 43 fold

**Q.** What about the IC50 [2] of the same compound?
**A.** 16.5 ± 2.5 nM

**Q.** What about the “increase in IC50 for CYP17A1” value [2] of the same compound?
**A.** ca. 3 fold

**Q.** With `C[C@]12CC[C@H](O)C[C@@H]1NC(=O)C[C@@H]1[C@@H]2CC[C@]2(C)C(c3cccnc3)=CC[C@@H]12` [14b, 6-Aza-7-oxo-17-(3-pyridyl)-B-homo-5α-androst-16-en-3β-ol] as the compound, how does the “selectivity for CYP17A1 inhibition over CYP21A2 inhibition” value ([2]; progesterone hydroxylation reactions) read?
**A.** ca. 16 fold

**Q.** Which “decrease in the IC50 for CYP21A2” value ([1]; relative to abiraterone) does the source give for `C[C@]12CCC(=O)C=C1CC[C@@H]1[C@@H]2CC[C@]2(C)C(c3cccnc3)=CC[C@@H]12` [compound 4, 17-(3-Pyridyl)androsta-4,16-dien-3-one] here?
**A.** 46 fold

**Q.** What about the “selectivity for CYP21A2 over CYP17A1” value [3] of the same compound?
**A.** 8.8 times

**Q.** And the “inhibition of CYP17A1” value [4]?
**A.** comparably to abiraterone itself

**Q.** Which “increase in IC50 for CYP17A1” value [2] does the source give for `C[C@]12CC[C@H](O)CC1=C(C#N)C[C@@H]1[C@@H]2CC[C@]2(C)C(c3cccnc3)=CC[C@@H]12` [compound 7, 3β-Hydroxy-17-(3-pyridyl)androsta-5,16-dien-6-carbonitrile] here?
**A.** 3 fold

**Q.** Which “increase in IC50 for CYP21A2” value ([1]; relative to abiraterone) does the source give for `C[C@]12CC[C@H](O)CC1=CC[C@@H]1[C@@H]2CC[C@]2(C)C(c3ccccc3)=CC[C@@H]12` [3b, 17-Phenylandrosta-5,16-dien-3β-ol] here?
**A.** > 20 fold

**Q.** What about the “increase in IC50 for CYP17A1” value [2] of the same compound?
**A.** more than 4,000 fold
